Reference: patent US20180111913A1, “SUBSTITUTED BENZOFURAN DERIVATIVES AS NOVEL ANTIMYCOBACTERIAL AGENTS” (priority 2015, published 2018)
≈ marks a conversion by molar mass, not a printed value. Where two headings read alike, the source gives them in different places.

How the values were obtained:
[1] = target: Mtb Pks13-TE domain (wild-type) (Mycobacterium tuberculosis, UniProt I6X8D2); assay: biochemical; type: biochemical
Mtb strain mc^27000 = assay: microbe, parasite or virus in culture; type: cell-based, Mycobacterium tuberculosis
M tuberculosis = type: in vivo, Mycobacterium tuberculosis in GKO mice
[2] = tested on: human dermal fibroblast (HDF) cells; conditions: for Survival vs. Control: HDF cell survival relative to DMSO-only control at the first (or only) Non-Toxic Concentration value; for Non-Toxic Concentration: human, 48 h
[3] = GKO mice, 300 mg/kg, 200 mg/kg from day 4; seizures
Mtb (Erdman lux strain) = type: in vivo, Mycobacterium tuberculosis in female Balb/C mice
Mtb isolate H37Rv = conditions: whole-cell screen; cited from earlier work
[4] = Pks13-TE, 20 μM 4-MUH, read-out: IC50
[5] = Pks13 enzyme inhibition, read-out: Pks13 IC50
[6] = Mtb mc^27000, liquid medium, 96-well plates, read-out: MIC
[7] = Mycobacterium tuberculosis, read-out: Pks13 MIC
[8] = Mycobacterium tuberculosis, Mtb mc^27000, liquid medium, 96-well plates, read-out: MIC

Chain of Mtb Pks13-TE domain (wild-type) (I6X8D2 1451-1733): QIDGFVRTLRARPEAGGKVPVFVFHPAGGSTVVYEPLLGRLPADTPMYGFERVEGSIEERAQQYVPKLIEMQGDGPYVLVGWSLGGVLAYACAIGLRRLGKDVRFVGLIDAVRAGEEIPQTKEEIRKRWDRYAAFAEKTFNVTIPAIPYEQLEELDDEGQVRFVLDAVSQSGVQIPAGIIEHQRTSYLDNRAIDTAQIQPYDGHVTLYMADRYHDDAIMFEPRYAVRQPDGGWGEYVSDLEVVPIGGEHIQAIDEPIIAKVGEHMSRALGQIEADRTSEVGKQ

| Compound | IC50 [1, 4] [nM] | IC50 [1, 5] [nM] | MIC (Mtb strain mc^27000; [7]) [µM] | Survival vs. Control [2] [%] | Non-Toxic Concentration [2] [µM] | MIC (Mtb strain mc^27000; [8]) [µM] | further results |
| --- | --- | --- | --- | --- | --- | --- | --- |
| CNC(=O)c1c(-c2ccccc2)oc2ccc(O)c(CN3CCCCC3)c12 [compound 17] | 290 | 290 | 0.2 (≈ 0.0729 µg/mL) | 103 | 50 | – | IC50 ([1]; Mtb Pks13-TE domain, mean ± s.d. of triplicates, read-out: IC50): 290 ± 10 nM; MIC (Mtb strain mc^27000; Mtb mc^27000, liquid medium, 96-well plates, listed as compound L, read-out: MIC): 0.2 µM (≈ 0.0729 µg/mL); MIC (Mtb strain mc^27000; [6]): 2 µM (≈ 0.729 µg/mL); MIC (Mtb strain mc^27000; Mycobacterium tuberculosis, […], mean ± s.d. of triplicates, NI: no inhibition, read-out: MIC): 0.2 µM (≈ 0.0729 µg/mL); MIC lower than that of the test compound (Mtb strain mc^27000; relative to test compound): > 10 fold; log CFU reduction versus untreated control in the lungs (M tuberculosis; GKO mice, 300 mg/kg then 200 mg/kg from day 4, sacrificed day 8 of dosing, no drug clearance period, lungs): 0.53 log CFU; log CFU reduction versus untreated control in the spleen (M tuberculosis; GKO mice, 300 mg/kg then 200 mg/kg from day 4, sacrificed day 8 of dosing, no drug clearance period, spleen): 3.72 log CFU; Lung CFU (M tuberculosis; mouse, in vivo): 7.21; Lung RLU (M tuberculosis; mouse, in vivo): 4.24; Spleen CFU (M tuberculosis; mouse, in vivo): 3.01; Spleen RLU (M tuberculosis; mouse, in vivo): 1.85; growth inhibition in HDF cells relative to DMSO only control [2]: did not show any growth inhibition; toxicity observed during dosing [3]: apparent toxicity |
| CNC(=O)c1c(-c2ccc(OC)cc2)oc2ccc(O)c(CN3CCCCC3)c12 [compound 31] | 260 | 260 | 1.1 (≈ 0.434 µg/mL) | 111 | 50 | 1.1 (≈ 0.434 µg/mL) | log CFU reduction in the lungs vs. untreated controls (M tuberculosis; GKO mice, 100 mg/kg oral once daily, 9 days, lungs): 0.84 log CFU; log CFU reduction in the spleen relative to untreated controls (M tuberculosis; GKO mice, 100 mg/kg oral once daily, 9 days, spleen): 1.54 log CFU; Diff of Means, Control vs. treatment, Lung (M tuberculosis; mouse, in vivo): 0.834; Diff of Means, Control vs. treatment, Spleen (M tuberculosis; mouse, in vivo): 2.623; Diff of Means, Inhibitor 31 vs. Inhibitor 32, Lung (M tuberculosis; mouse, in vivo): 0.340; Diff of Means, Inhibitor 31 vs. Inhibitor 32, Spleen (M tuberculosis; mouse, in vivo): 0.522; Diff of Means, Inhibitor 31 vs. Isoniazid, Lung (M tuberculosis; mouse, in vivo): 2.179; Diff of Means, Inhibitor 31 vs. Isoniazid, Spleen (M tuberculosis; mouse, in vivo): 2.101; Lung CFU (M tuberculosis; mouse, in vivo): 7.33; Lung RLU (M tuberculosis; mouse, in vivo): 5.06; Spleen CFU (M tuberculosis; mouse, in vivo): 5.11; Spleen RLU (M tuberculosis; mouse, in vivo): 2.59 |
| CNC(=O)c1c(-c2ccccc2)oc2cc(O)cc(CN3CCCCC3)c12 [compound 40] | 600 | 600 | 20 (≈ 7.29 µg/mL) | 101 | 100 | 20 (≈ 7.29 µg/mL) | – |
| O=C(c1c(-c2ccccc2)oc2ccc(O)c(CN3CCCCC3)c12)N1CCNCC1 [compound 41] | 440 | 740 | 3.1 (≈ 1.3 µg/mL) | 100 | 100 | 20 (≈ 8.39 µg/mL) | – |
| O=C(c1c(-c2ccccc2)oc2ccc(O)c(CN3CCCCC3)c12)N1CCCCC1 [compound 42] | 740 | 320 | > 10 | 89 | 100 | – | MIC (Mtb strain mc^27000; [6]): 3.1 µM (≈ 1.3 µg/mL) |
| CC(=O)NCCNC(=O)c1c(-c2ccccc2)oc2ccc(O)c(CN3CCCCC3)c12 [compound 44] | 500 | 500 | > 40 | 104 | 50 | > 40 | – |
| CCOC(=O)c1c(-c2ccc(O)cc2)oc2cc(O)cc(CN3CCCCC3)c12 [compound 45] | 440 | 440 | 1.1 (≈ 0.435 µg/mL) | 89 | 100 | 1.1 (≈ 0.435 µg/mL) | – |
| CNC(=O)c1c(-c2ccc(O)cc2)oc2cc(O)cc(CN3CCCCC3)c12 [compound 47] | 570 | – | 1 (≈ 0.38 µg/mL) | 98 | 50 | 1 (≈ 0.38 µg/mL) | activity in the lungs or the spleen, in words (M tuberculosis; GKO mice, 300 mg/kg dosing): did not show any activity; Lung CFU (M tuberculosis; mouse, in vivo): 8.39; Lung RLU (M tuberculosis; mouse, in vivo): 6.09; Spleen CFU (M tuberculosis; mouse, in vivo): 6.84; Spleen RLU (M tuberculosis; mouse, in vivo): 4.45 |
| CCOC(=O)c1c(-c2ccc(O)nc2)oc2ccc(O)c(CN3CCCCC3)c12 [compound 58] | – | 360 | 4 (≈ 1.59 µg/mL) | 95 | 50 | 4 (≈ 1.59 µg/mL) | – |
| CNC(=O)c1c(-c2ccc(O)c(F)c2)oc2ccc(O)c(CN3CCCCC3)c12 [compound 61] | – | 330 | 0.5 (≈ 0.199 µg/mL) | 94 | 50 | 0.5 (≈ 0.199 µg/mL) | – |
| CCOC(=O)c1c(-c2ccc(C#N)cc2)oc2ccc(O)c(CN3CCCCC3)c12 [compound 62] | 270 | 270 | 1.5 (≈ 0.607 µg/mL) | 90 | 6.25 | 1.5 (≈ 0.607 µg/mL) | – |
| CCOC(=O)c1c(-c2cc(F)c(O)c(F)c2)oc2ccc(O)c(CN3CCCCC3)c12 [compound 63] | 500 | 500 | 7 (≈ 3.02 µg/mL) | 99 | 25 | 7 (≈ 3.02 µg/mL) | – |
| CNC(=O)c1c(-c2cc(F)c(O)c(F)c2)oc2ccc(O)c(CN3CCCCC3)c12 [compound 64] | 1500 | 1500 to 1900 | – | 94 | 100 | > 40 | Pks13 MIC (Mtb strain mc^27000; whole cell, mc^27000 Mtb, NI at 40 μM): NI (40 μM) |
| OCc1c(-c2ccccc2)oc2ccc(O)c(CN3CCCCC3)c12 [compound 65] | 240 | 240 | 6 to 12.5 (≈ 2.02 to 4.22 µg/mL) | 95 | 25 | 12.5 (≈ 4.22 µg/mL) | – |
| COC(=O)c1c(-c2ccccc2)oc2cc(O)cc(CNC(C)C)c12 [compound 67] | – | 700 | 9 (≈ 3.05 µg/mL) | 97 | 25 | 9 (≈ 3.05 µg/mL) | – |
| CCOC(=O)c1c(-c2ccccc2)oc2cc(O)cc(CN3CCC(C#N)CC3)c12 [compound 69] | 1600 | 1600 | 20 (≈ 8.09 µg/mL) | 93 | 50 | 20 (≈ 8.09 µg/mL) | – |
| CCOC(=O)c1c(-c2ccccc2)oc2cc(O)cc(CN3CCC(NC(C)=O)CC3)c12 [compound 70] | 6100 | 6100 | > 40 | 91 | 50 | > 40 | – |
| CCOC(=O)c1c(-c2ccccc2)oc2cc(OC)cc(CNC(C)C)c12 [compound 72] | > 10000 | > 10000 | 7.4 (≈ 2.72 µg/mL) | 91 | 3.125 | 7.4 (≈ 2.72 µg/mL) | – |
| CCOC(=O)c1c(-c2ccc(F)cc2)oc2cc(O)cc(CCNC(C)C)c12 [compound 73] | 2100 | 1500 to 2100 | 2.5 (≈ 0.964 µg/mL) | 97 | 12.5 | 2.5 (≈ 0.964 µg/mL) | – |
| CNC(=O)c1c(-c2ccc(O)nc2)oc2cc(O)cc(CN3CCCCC3)c12 [compound 88] | – | 2800 | – | 96 | 50 | 2.8 (≈ 1.07 µg/mL) | – |
| CCOC(=O)c1c(-c2ccccc2)oc2ccc(O)c(CCN3CCCC3)c12 [compound 102] | 2500 | 700 | – | 91 | 1.56 | 0.7 (≈ 0.266 µg/mL) | – |
| NNC(=O)c1ccncc1 [isoniazid, reference compound] | – | – | – | – | – | – | log reduction (CFU) in the spleen (Mtb (Erdman lux strain); Balb/C mice, isoniazid control 25 mg/kg, 4 weeks, spleen): 2.52 log; Diff of Means, Control vs. treatment (Mtb (Erdman lux strain); […], organ not given, values match spleen reductions of b137): 2.523; Lung CFU (Mtb (Erdman lux strain); mouse, in vivo): 4.98; Lung RLU (Mtb (Erdman lux strain); mouse, in vivo): 2.37; Spleen CFU (Mtb (Erdman lux strain); mouse, in vivo): 2.35; Spleen RLU (Mtb (Erdman lux strain); mouse, in vivo): 1.59; log reduction (CFU) in the lungs (Mtb (Erdman lux strain); mouse, in vivo): 1.11 log; Diff of Means, Control vs. treatment, Lung (M tuberculosis; mouse, in vivo): 3.013; Diff of Means, Control vs. treatment, Spleen (M tuberculosis; mouse, in vivo): 3.644; Lung CFU (M tuberculosis; mouse, in vivo): 5.15; Lung RLU (M tuberculosis; mouse, in vivo): 3.51; Spleen CFU (M tuberculosis; mouse, in vivo): 2.49; Spleen RLU (M tuberculosis; mouse, in vivo): 1.77; log CFU reduction in the spleen (M tuberculosis; mouse, in vivo): 4.16 log CFU; log CFU reduction relative to untreated control in the lungs (M tuberculosis; mouse, in vivo): 3.02 log CFU; log reduction in RLU (luciferase assay) (M tuberculosis; mouse, in vivo, 25 mg/kg): 1.01 log |
| CCOC(=O)c1c(-c2ccccc2)oc2ccc(O)c(CN3CCC(C)CC3)c12 [test compound] | – | – | – | – | – | – | MIC against Mtb isolate H37Rv (Mtb isolate H37Rv): 2.0 µM (≈ 0.787 µg/mL) |
